Key:
DSS-induced colitis = DSS-induced colitis model; assay type: in vivo, Balb/c mice; settings: 30 mg/kg orally once a day for 5-7 successive days; 1-3% DSS in water for 5-7 days
Text: Evaluation of Compounds in DSS-Induced Colitis Model
A 1-3% solution of dextran sulfate sodium (hereinafter abbreviated as DSS; ICN) in purified water (Otsuka Pharmaceutical) was fed freely to 6- to 7-week-old male Balb/c mice (Charles River Japan) for 5-7 days to induce colitis. Disease Activity Index (hereinafter abbreviated as DAI) scored based on fecal hardness, blood content in feces and body weight change, the number of neutrophils infiltrating the colon and the length of the colon were used as indexes to evaluate compounds. Each compound was suspended or dissolved in an aqueous solution containing 0.5% methyl cellulose (Wako), and orally administered at 30 mg/kg once a day, for 5-7 successive days.

[1] = system: human peripheral blood neutrophils; assay: Human peripheral blood neutrophil adhesion system (adhesion to immobilized HUVEC, PMA-stimulated); assay type: cell-based; settings: concentration inhibiting by 50% the PMA-stimulated increase in number of adhered BCECF-AM labeled neutrophils on HUVEC immobilized plate
Description: Evaluation of Compounds in Human Peripheral Blood Neutrophil Adhesion System
<Preparation of Human Peripheral Blood Neutrophils>
To a plastic centrifugation tube containing 100 units of heparin sodium (Shimizu Pharmaceutical) was added 25 ml of fresh blood sampled from a healthy human. After adding and mixing therewith 8 ml of physiological saline (Otsuka Pharmaceutical) containing 6% Dextran (Nacalai), the mixture was allowed to stand room temperature for 45 minutes for sedimentation of the erythrocytes. The resultant supernatant was transferred to another plastic centrifugation tube and combined with an equivalent volume of phosphate-buffered saline (hereinafter abbreviated as PBS; Sigma), and then centrifuged at 1600 rpm for 7 minutes at room temperature. The obtained hematocyte fraction was suspended in 4 ml of PBS, and the suspension was superposed on 4 ml of Ficoll-Paque™ PLUS (Amersham Biosciences). The resultant bilayer liquid was centrifuged at 2000 rpm for 30 minutes at room temperature, after which the supernatant was removed and the precipitate was suspended in 10 ml of PBS and centrifuged at 1200 rpm for 7 minutes, and the supernatant was removed. The resulting precipitate was suspended in 0.5 ml of PBS again, and then 10 ml of distilled water (Otsuka Pharmaceutical) was added, 0.5 ml of an aqueous solution containing 3 M NaCl was immediately added to restore isotonicity, the mixture was centrifuged at 1200 rpm for 7 minutes, and the obtained precipitate was suspended in PBS containing 1 mg/ml bovine serum albumin (hereinafter abbreviated as BSA; Sigma) again and stored in ice until being used for the experiment.
<Fluorescent Labeling of Human Peripheral Blood Neutrophils>
The obtained neutrophils were suspended in PBS containing 1 mg/ml BSA at 2×10^7 cells/ml. BCECF-AM (Dojin) was added to a final concentration of 5 μM, and the mixture was incubated at 37° C. for 45 minutes. It was then rinsed twice with PBS containing 1 mg/ml BSA by centrifugation, suspended again in PBS containing 1 mg/ml BSA at 5×10^7 cells/ml, and stored in ice until use.
<Preparation of HUVEC Immobilized Plate>
Human umbilical vein endothelial cells (hereinafter abbreviated as HUVEC) were suspended in MCDB131 medium (Chlorella Industries) containing 10% fetal calf serum and 30 μg/ml endothelial cell growth supplement (Becton Dickinson Bioscience). The suspension was added at 7.5×10^3 cells/well to a 96-well plate (Iwaki) immobilized with type I collagen, and cultured for 3 days in a CO2 incubator (Hirasawa). Upon confirming confluency of the cells, the supernatant was discarded, the plate was rinsed twice with PBS, and then PBS containing 0.1% glutaraldehyde (Kanto Kagaku) was added at 100 μl/well and the HUVECs were immobilized for 5 minutes. The supernatant was discarded and the plate was washed twice with PBS, and then PBS was added at 100 μl/well and the mixture was stored at 4° C. until use.
To 6.5 ml of RPMI-1640 medium (Sigma) containing 1 mg/ml of BSA were added 0.5 ml of a suspension of BCECF-AM labeled neutrophils at 5×10^7/ml stored in ice, which was mixed, and the mixture was added at 80 μl/well to a HUVEC immobilized plate. […] The supernatant was removed from the plate, which was then washed several times with RPMI-1640 at 100 μl/well, and then PBS containing 0.1% NP-40 (Calbiochem) was added thereto at 100 μl/well and the fluorescent intensity was measured with an ARVO™SX 1420 multi label counter (Wallac) to determine the number of adhered cells. […]

Jurkat cells = assay: Jurkat cell adhesion system (adhesion to immobilized human fibronectin, PMA-stimulated); assay type: cell-based; settings: concentration inhibiting by 50% the PMA-stimulated increase in number of adhered Jurkat cells on human fibronectin
Description: Evaluation of Compounds in Jurkat Cell Adhesion System
<Immobilization of Human Fibronectin in 96-Well Plate>
Human fibronectin (Becton Dickinson Biosciences) was diluted with phosphate-buffered saline (hereinafter abbreviated as PBS; Sigma) to 0.1-0.01 μg/ml, and the diluted solution was added to a 96-well plate (Becton Dickinson) at 50μ/well, and allowed to stand overnight at 4° C. On the following day, the supernatant was removed from the plate, and then PBS containing 1% bovine serum albumin (hereinafter abbreviated as BSA; Sigma) was added thereto at 100 μl/well and incubation was performed at 37° C. for 2 hours in a CO2 incubator (Hirasawa).
The supernatant was removed from each plate and Jurkat cells suspended in RPMI-1640 (Sigma) containing 1 mg/ml BSA were added at 80 μl/well for 2.5×10^5 cells/well. The compound diluted to different concentrations with RPMI-1640 containing 1 mg/ml BSA was immediately added at 10 μl/well, and then 100 nM phorbol myristate acetate (hereinafter abbreviated as PMA; Sigma) in RPMI-1640 containing 1 mg/ml BSA was added at 10 μl/well and the plate was incubated in a CO2 incubator at 37° C. for 45-60 minutes. The supernatant was removed from the plate and each well was washed several times with 100 μl/well of RPMI-1640, after which 50 mM citrate buffer (pH 5.0) containing 3.75 mM p-nitrophenol-N-acetyl-β-D-glucosaminide (Sigma) and 0.25% Triton X-100 (Sigma) were added at 60 μl/well, and the mixture was placed in a CO2 incubator and incubated at 37° C. for 45 minutes. After incubation, 50 mM glycine buffer (pH 10.4) containing 5 mM EDTA was added at 90 μl/well, and the absorbance at 405 nm was measured with an EL340 Automated Microplate Reader (BIO-TEK) to determine the adhered cell count. The concentration of each compound which inhibited the increase in the number of adhered cells by the PMA-stimulation by 50% was recorded as the IC50 (μM).

Row | Compound | improvement in comparison with the DSS control group (DAI, number of neutrophils infiltrating the colon, length of the colon) (DSS-induced colitis) | IC50 [1] [µM] | IC50 (Jurkat cells) [µM]
1 | CCCCN1CCN(c2cc(C#N)ccc2[C@H]2CC[C@H](C(C)(C)C)CC2)CC1.Cl [Example 13, trans-4-(4-t-Butylcyclohexyl)-3-(4-butylpiperazin-1-yl)benzonitrile hydrochloride] | particularly good improvement | 53.9 | 3.9
2 | CCCCN1CCN(c2cc(C#N)ccc2[C@H]2CC[C@@H](C(C)(C)C)CC2)CC1.Cl [Example 12, cis-4-(4-t-Butylcyclohexyl)-3-(4-butylpiperazine-1-yl)benzonitrile hydrochloride] | particularly good improvement | 18.3 | 3.1

— patent publication US7410971B2, “1,2-di(cyclic)substituted benzene compounds” (Eisai R&D Management Co., Ltd., priority 2003, dated 2008)
